Assay results taken from article PMC2655646, “A Conserved Mechanism for Control of Human and Mouse Embryonic Stem Cell Pluripotency and Differentiation by Shp2 Tyrosine Phosphatase” (PLoS ONE, 2009).

Assays:
Shp2 = molecular target: T1, Shp2 (Mus musculus, UniProt P35235); experiment: pNPP phosphatase assay with purified GST-PTP domain, absorbance at […] nm; Ki also determined ([…]); format: biochemical
T1 construct: gene Ptpn11; GST-tagged PTP domain
T1 sequence (P35235 247-521 limits assumed): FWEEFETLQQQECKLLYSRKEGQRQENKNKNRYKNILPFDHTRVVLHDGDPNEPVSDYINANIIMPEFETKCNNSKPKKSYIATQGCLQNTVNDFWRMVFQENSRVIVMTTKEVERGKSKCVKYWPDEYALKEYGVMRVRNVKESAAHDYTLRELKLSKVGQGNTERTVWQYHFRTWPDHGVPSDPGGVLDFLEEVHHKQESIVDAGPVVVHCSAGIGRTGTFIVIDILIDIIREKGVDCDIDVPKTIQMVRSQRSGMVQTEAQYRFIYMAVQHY

Shp1 = molecular target: T2, Shp1 (Mus musculus, UniProt P29351); experiment: phosphatase inhibition assay with purified GST-PTP domain; format: biochemical
T2 construct: gene Ptpn6; GST-tagged PTP domain
T2 sequence (P29351 244-515 limits assumed): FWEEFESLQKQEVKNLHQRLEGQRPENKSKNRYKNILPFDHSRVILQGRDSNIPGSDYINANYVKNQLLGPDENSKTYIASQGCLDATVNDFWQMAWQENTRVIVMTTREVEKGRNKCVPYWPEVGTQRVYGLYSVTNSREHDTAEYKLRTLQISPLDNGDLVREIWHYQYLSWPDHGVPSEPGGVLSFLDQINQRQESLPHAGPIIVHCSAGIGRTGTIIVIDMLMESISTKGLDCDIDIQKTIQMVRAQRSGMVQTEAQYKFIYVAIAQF

O=C(O)c1cc(O)c(=O)c2c(O)c(O)ccc2c1 [DCA, 7-deshydroxypyrogallin-4-carboxylic acid]
IC50 (Shp2): 2.1 µM | IC50 (Shp1): 2.3 µM
